Data on seven compounds can be found in patent publication US11174253B2, “Compound and pharmaceutical composition containing the same” (ALPHALA CO., LTD., priority 2017, dated 2021).

Common to all, as to assay type: cell-based
In assay [1] the test system is hepatocellular carcinoma cell line Hep3B. The assay is described as follows: Growth inhibition of Hep3B cells, 48 hr treatment, Hoechst 33342 nucleus count (GE InCell 2200). To be noted: Homo sapiens. In short, it runs like this: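 Compound exposure lasted 48 hr at 37° C, 5% CO2. Surviving nuclei were counted after Hoechst 33342 staining, and survival was expressed as the treated/non-treated cell number ratio, including the ratio at 10 μM compound.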

Assay [2] has as its system Hep3B hepatocellular carcinoma cell line. The assay is described as follows: MTS cell viability assay (NCI-60 methodology), GI50/LC50, Hep3B. To be noted: Homo sapiens, 48 h, Hep3B cells, 2 days incubation with compound. In short, it runs like this: (§1)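 Cells were plated 24 h before treatment, and a time-zero plate was read by MTS. Five 2-fold dilutions plus DMSO were then added for 48 h, and viability was measured by MTS. GI50 is from [(Ti−Tz)/(C−Tz)]×100=50 and LC50 from [(Ti−Tz)/Tz]×100=−50.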
A general note: Formazan colour is commonly taken as a measure of viable cells.

Assay [3] concerns SW480 colon adenocarcinoma cell line. Put plainly: MTS cell viability assay (NCI-60 methodology), GI50/LC50, SW480. To be noted: Homo sapiens, 48 h, SW480 cells, 2 days incubation with compound. Put shortly:
as §1

Assay [4] concerns NCI-H460 human lung cancer cell line. The assay is described as follows: MTS cell viability assay (NCI-60 methodology), GI50/LC50, NCI-H460. To be noted: 48 h, NCI-H460 cells, 2 days incubation with compound. In short, it runs like this: as §1
Where [5] appears, read: Table 1, ratio of number of tumor cells treated with 10 μM compound to non-treated cells.
[6] abbreviates: Table 5, ratio of number of tumor cells treated with 10 μM compound to non-treated cells.

Consider `CCOCOc1cc(OCC)ccc1-c1nnc(NC(=O)Cc2ccc3nc(N)sc3c2)s1` [Compound 1-26, 2-(2-aminobenzo[d]thiazol-6-yl)-N-(5-(4-ethoxy-2-(ethoxymethoxy)phenyl)-1,3,4-thiadiazol-2-yl)acetamide], for which the viability (as a rule, a per cent measure of how many cells are alive, often set against a control) at 10 µM in assay [1] (setting [5]) is 59%. Moreover, in assay [2], the GI50 (in general, the concentration at which growth is held to half of that of the control) was 160 nM and the LC50 (in general, the concentration that kills 50% of the test population) worked out at 490 nM. Besides, in assay [3], the GI50 amounted to 210 nM and the LC50 (NCI-60 lethal concentration, 50% net cell loss vs time zero) came out at 630 nM. In assay [4], the 50% growth inhibitory concentration (GI50) worked out at 200 nM and the LC50 (concentration giving 50% net cell loss versus time zero, NCI-60 definition) was found to be 590 nM.
Turning to `CCCCOc1cc(OCC)ccc1-c1nnc(NC(=O)Cc2ccc3nc(N)sc3c2)s1` [Compound 1-23, 2-(2-aminobenzo[d]thiazol-6-yl)-N-(5-(2-butoxy-4-ethoxyphenyl)-1,3,4-thiadiazol-2-yl)acetamide], the viability at 10 µM in assay [1] (setting [5]) was found to be 71%. In addition, in assay [2], the GI50 stood at 480 nM and the LC50 is 480 nM. Besides, in assay [3], the concentration for 50% growth inhibition (GI50) worked out at 520 nM and the LC50 (NCI-60 lethal concentration, 50% net cell loss vs time zero) amounted to 520 nM. In addition, in assay [4], the GI50 was 580 nM and the LC50 (concentration giving 50% net cell loss versus time zero, NCI-60 definition) was found to be 580 nM.
On to `CCCOc1ccc(-c2nc(NC(=O)c3ccc([N+](=O)[O-])s3)sc2Oc2ccc(Br)cc2)cc1` [Compound 5-27, N-(5-(4-bromophenoxy)-4-(4-propoxyphenyl)thiazol-2-yl)-5-nitrothiophene-2-carboxamide], for which the viability at 10 µM in assay [1] (setting [6]) was 31%. For the same compound, in assay [2], the GI50 stood at 820 nM and the 50% lethal concentration (LC50) was 1510 nM. In assay [3], the GI50 came to 1230 nM and the LC50 (NCI-60 lethal concentration, 50% net cell loss vs time zero) turned out to be 4870 nM. In assay [4], the GI50 stood at 1960 nM and the LC50 (concentration giving 50% net cell loss versus time zero, NCI-60 definition) came out at 4740 nM.
For the compound `CCC(CC)Oc1ccccc1-c1nnc(NC(=O)Cc2ccc3nc(N)sc3c2)s1` [Compound 1-22, 2-(2-aminobenzo[d]thiazol-6-yl)-N-(5-(2-(pentan-3-yloxy)phenyl)-1,3,4-thiadiazol-2-yl)acetamide], the viability at 10 µM in assay [1] (setting [5]) was 66%. Further, the GI50 in assay [2] came out at 90 nM; in assay [3], 1230 nM; in assay [4], 2670 nM. In assay [2], the LC50 turned out to be 8360 nM.
Take `CC(C)(C)c1ccc(-c2nc(NC(=O)c3ccc([N+](=O)[O-])s3)sc2Oc2ccc(F)cc2)cc1` [Compound 5-20, N-(4-(4-(tert-butyl)phenyl)-5-(4-fluorophenoxy)thiazol-2-yl)-5-nitrothiophene-2-carboxamide]: the viability at 10 µM in assay [1] (setting [6]) turned out to be 62%. In addition, in assay [2], the GI50 was 790 nM and the median lethal concentration (LC50) is 2630 nM. For the same compound, in assay [3], the GI50 came out at 880 nM and the LC50 (NCI-60 lethal concentration, 50% net cell loss vs time zero) amounted to 3730 nM. Also, in assay [4], the GI50 was determined as 2760 nM and the LC50 (concentration giving 50% net cell loss versus time zero, NCI-60 definition) was determined as 8340 nM.
`CC(C)(C)c1ccc(-c2nc(NC(=O)c3ccc([N+](=O)[O-])s3)sc2Oc2cccc(F)c2)cc1` [Compound 5-22, N-(4-(4-(tert-butyl)phenyl)-5-(3-fluorophenoxy)thiazol-2-yl)-5-nitrothiophene-2-carboxamide]: the viability at 10 µM in assay [1] (setting [6]) was 30%. Also, in assay [2], the GI50 stood at 1430 nM and the median lethal concentration (LC50) turned out to be 4030 nM. Further, in assay [3], the GI50 was 2500 nM and the LC50 (NCI-60 lethal concentration, 50% net cell loss vs time zero) came to 4270 nM. Besides, in assay [4], the GI50 was 2090 nM and the LC50 (concentration giving 50% net cell loss versus time zero, NCI-60 definition) stood at 4530 nM.
For `CCCOc1ccc(-c2nc(NC(=O)c3ccc([N+](=O)[O-])s3)sc2Oc2cccc(F)c2)cc1` [Compound 5-24, N-(5-(3-fluorophenoxy)-4-(4-propoxyphenyl)thiazol-2-yl)-5-nitrothiophene-2-carboxamide], the viability at 10 µM in assay [1] (setting [6]) was found to be 28%. In addition, in assay [2], the GI50 is 950 nM and the 50% lethal concentration (LC50) was 2070 nM. For the same compound, in assay [3], the GI50 turned out to be 1140 nM and the LC50 (NCI-60 lethal concentration, 50% net cell loss vs time zero) worked out at 4230 nM. In addition, in assay [4], the GI50 was determined as 1570 nM and the LC50 (concentration giving 50% net cell loss versus time zero, NCI-60 definition) amounted to 3790 nM.
